According to US12534452B2, “N-(1H-imidazol-2-yl)benzamide compound and pharmaceutical composition comprising the same as active ingredient” (KAINOS MEDICINE, INC., priority 2019, dated 2026):

target: IRAK4 (Homo sapiens (Human), UniProt Q9NWZ3); experiment: In vitro IRAK4 phosphorylation activity assay; format: biochemical; settings: [γ-33P]-ATP, myelin basic protein substrate, 40 minutes at room temperature; categories
Experimental: In vitro IRAK4 analysis was performed using N-(1H-imidazol-2-yl)benzamide compounds according to the present invention. All compounds were prepared by dissolving in DMSO. N-(1H-imidazol-2-yl)benzamide compound according to the present invention and other elements for the reaction were added to an assay well. In the standard Kinase Profiler service the preincubation step between the N-(1H-imidazol-2-yl)benzamide compound and kinase was not performed before the reaction.
To the positive control well, all reactants except for the N-(1H-imidazol-2-yl)benzamide compound according to the present invention were added, and DMSO was added to remove the solvent effect. A known control inhibitor having the following structure was added to the blank wells to inhibit kinase activity and establish a base-line.
IRAK4 was incubated with 8 mM MOPS pH 7.0, 0.2 mM EDTA, 0.33 mg/mL myelin basic protein, 10 mM magnesium acetate and [γ-33P]-ATP (specific activity approx. 500 cpm/pmol, concentration as required). The reaction was initiated by the addition of the MgATP mix. After incubation for 40 minutes at room temperature, the reaction was stopped by the addition of 3% phosphoric acid solution. 10 μL of the reaction was then spotted onto a P30 filtermat and washed three times for 5 minutes in 75 mM phosphoric acid and once in methanol prior to drying and scintillation counting.
The results are shown in Table 26 below, where the phosphorylation activity of IC50 values for IRAK4 is shown in categories (A: <50 nM, B: 50-100 nM, C: >100 nM).

Chain of IRAK4 (Q9NWZ3 whole entry): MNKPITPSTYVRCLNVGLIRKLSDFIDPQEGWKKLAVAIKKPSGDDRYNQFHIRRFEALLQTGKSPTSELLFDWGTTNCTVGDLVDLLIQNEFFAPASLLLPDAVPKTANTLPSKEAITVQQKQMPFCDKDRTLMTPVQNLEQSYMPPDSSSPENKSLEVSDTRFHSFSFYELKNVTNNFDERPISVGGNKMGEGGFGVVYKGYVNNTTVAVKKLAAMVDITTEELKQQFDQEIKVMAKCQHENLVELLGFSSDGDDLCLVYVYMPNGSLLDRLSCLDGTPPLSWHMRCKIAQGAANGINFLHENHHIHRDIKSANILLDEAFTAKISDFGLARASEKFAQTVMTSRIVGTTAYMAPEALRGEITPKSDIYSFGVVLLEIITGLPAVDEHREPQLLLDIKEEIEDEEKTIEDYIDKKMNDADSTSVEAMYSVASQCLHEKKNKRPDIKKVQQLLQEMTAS

| IC50 | SMILES |
| --- | --- |
| < 50 nM | Cn1cc(-c2cccc(C(=O)Nc3nc(CCCC(=O)N4CCN(S(C)(=O)=O)CC4)cn3-c3ccccc3)c2)cn1 [Example 206, 3-(1-methyl-1H-pyrazol-4-yl)-N-(4-(4-(4-(methylsulfonyl)piperazin-1-yl)-4-oxobutyl)-1-phenyl-1H-imidazol-2-yl)benzamide] |
| 50 to 100 nM | Cn1ncc2cc(-c3cccc(C(=O)Nc4nc(CCCCCCN5CCCCC5)cn4-c4ccccc4)c3)ccc21 [Example 263, 3-(1-methyl-1H-indazol-5-yl)-N-(1-phenyl-4-(6-(piperidin-1-yl)hexyl)-1H-imidazol-2-yl)benzamide] |
| < 50 nM | CN1CCN(CCNC(=O)CCCc2cn(-c3ccccc3)c(NC(=O)c3cccc(-c4cnn(C)c4)c3)n2)CC1 [Example 187, 3-(1-methyl-1H-pyrazol-4-yl)-N-(4-(4-((2-(4-methylpiperazin-1-yl)ethyl)amino)-4-oxobutyl)-1-phenyl-1H-imidazol-2-yl)benzamide] |
| < 50 nM | O=C(Nc1nc(CCCCNC(=O)C2CC2)cn1-c1ccccc1)c1cccc(-c2ccc3[nH]ncc3c2)c1 [Example 261, N-(4-(4-(cyclopropanecarboxamido)butyl)-1-phenyl-1H-imidazol-2-yl)-3-(1H-indazol-5-yl)benzamide] |
| 50 to 100 nM | O=C(Nc1nc(CCCCCCN2CCCCC2)cn1-c1ccccc1)c1cccc(-c2ccncc2)c1 [Example 268, N-(1-phenyl-4-(6-(piperidin-1-yl)hexyl)-1H-imidazol-2-yl)-3-(pyridin-4-yl)benzamide] |
| < 50 nM | CC(=O)N1CCN(C(=O)CCCc2cn(-c3ccccc3)c(NC(=O)c3cccc(-c4cnn(C)c4)c3)n2)CC1 [Example 205, N-(4-(4-(4-acetylpiperazin-1-yl)-4-oxobutyl)-1-phenyl-1H-imidazol-2-yl)-3-(1-methyl-1H-pyrazol-4-yl)benzamide] |
| < 50 nM | O=C(CCc1cn(-c2cccc(Cl)c2)c(NC(=O)c2cccc(-c3cn[nH]c3)c2)n1)Nc1ccccc1 [Example 293, N-(1-(3-chlorophenyl)-4-(3-oxo-3-(phenylamino)propyl)-1H-imidazol-2-yl)-3-(1H-pyrazol-4-yl)benzamide] |
| < 50 nM | O=C(CCCc1cn(-c2ccccc2)c(NC(=O)c2cccc(-c3cn[nH]c3F)c2)n1)NC1CC1 [Example 229, N-(4-(4-(cyclopropylamino)-4-oxobutyl)-1-phenyl-1H-imidazol-2-yl)-3-(5-fluoro-1H-pyrazol-4-yl)benzamide] |
| < 50 nM | CN1CCN(C(=O)CCCc2cn(-c3ccccc3)c(NC(=O)c3cccc(-c4cn[nH]c4F)c3)n2)CC1 [Example 230, 3-(5-fluoro-1H-pyrazol-4-yl)-N-(4-(4-(4-methylpiperazin-1-yl)-4-oxobutyl)-1-phenyl-1H-imidazol-2-yl)benzamide] |
| < 50 nM | CNC(=O)CCCc1cn(-c2ccc(F)cc2)c(NC(=O)c2cccc(-c3cn[nH]c3)c2)n1 [Example 297, N-(1-(4-fluorophenyl)-4-(4-(methylamino)-4-oxobutyl)-1H-imidazol-2-yl)-3-(1H-pyrazol-4-yl)benzamide] |

The next lines start with the molecule.

| SMILES | IC50 |
| --- | --- |
| O=C(Nc1nc(CCCCCC[N+]2([O-])CCCCC2)cn1-c1ccccc1)c1cccc(-c2cn[nH]c2)c1 [Example 125, 1-(6-(2-(3-(1H-pyrazol-4-yl)benzamido)-1-phenyl-1H-imidazol-4-yl)hexyl)piperidine 1-oxide] | < 50 nM |
| COC[C@H]1CCCN1NC(=O)CCCCCc1cn(-c2ccccc2)c(NC(=O)c2cccc(-c3cn[nH]c3)c2)n1 [Example 99, (R)—N-(4-(6-((2-(methoxymethyl)pyrrolidin-1-yl)amino)-6-oxohexyl)-1-phenyl-1H-imidazol-2-yl)-3-(1H-pyrazol-4-yl)benzamide] | < 50 nM |
| CC1(C)CCN(C(=O)CCc2cn(-c3ccccc3)c(NC(=O)c3cccc(-c4cn[nH]c4)c3)n2)CC1 [Example 35, N-(4-(3-(4,4-dimethylpiperidin-1-yl)-3-oxopropyl)-1-phenyl-1H-imidazol-2-yl)-3-(1H-pyrazol-4-yl)benzamide] | < 50 nM |
| Cn1cc(-c2cccc(C(=O)Nc3nc(CCCC(=O)NN4CCCC4)cn3-c3ccccc3)c2)cn1 [Example 151, 3-(1-methyl-1H-pyrazol-4-yl)-N-(4-(4-oxo-4-(pyrrolidin-1-ylamino)butyl)-1-phenyl-1H-imidazol-2-yl)benzamide] | < 50 nM |
| Cn1cc(-c2cccc(C(=O)Nc3nc(CCCC(=O)N4CCN(Cc5ccc(OC(F)(F)F)cc5)CC4)cn3-c3ccccc3)c2)cn1 [Example 173, 3-(1-methyl-1H-pyrazol-4-yl)-N-(4-(4-oxo-4-(4-(4-(trifluoromethoxy)benzyl)piperazin-1-yl)butyl)-1-phenyl-1H-imidazol-2-yl)benzamide] | 50 to 100 nM |
| Cn1cc(-c2cccc(C(=O)Nc3nc(CCCC(=O)N4CCOCC4)cn3-c3ccccc3)c2)cn1 [Example 160, 3-(1-methyl-1H-pyrazol-4-yl)-N-(4-(4-morpholino-4-oxobutyl)-1-phenyl-H-imidazol-2-yl)benzamide] | < 50 nM |
| C[C@@H]1CCCCN1C(=O)CCCc1cn(-c2ccccc2)c(NC(=O)c2cccc(-c3cn[nH]c3)c2)n1 [Example 61, (R)—N-(4-(4-(2-methylpiperidin-1-yl)-4-oxobutyl)-1-phenyl-1H-imidazol-2-yl)-3-(1H-pyrazol-4-yl)benzamide] | < 50 nM |
| CN1CCN(CCCNC(=O)CCCc2cn(-c3ccccc3)c(NC(=O)c3cccc(-c4cnn(C)c4)c3)n2)CC1 [Example 186, 3-(1-methyl-1H-pyrazol-4-yl)-N-(4-(4-((3-(4-methylpiperazin-1-yl)propyl)amino)-4-oxobutyl)-1-phenyl-1H-imidazol-2-yl)benzamide] | 50 to 100 nM |
| CN1CCN(C(=O)CCCc2cn(-c3ccccc3)c(NC(=O)c3cccc(-c4cnn(C)c4)c3)n2)CC1 [Example 143, 3-(1-methyl-1H-pyrazol-4-yl)-N-(4-(4-(4-methylpiperazin-1-yl)-4-oxobutyl)-1-phenyl-1H-imidazol-2-yl)benzamide] | < 50 nM |
| O=C(Nc1nc(CCCCCCN2CCSCC2)cn1-c1ccccc1)c1cccc(-c2cn[nH]c2)c1 [Example 124, N-(1-phenyl-4-(6-thiomorpholinohexyl)-1H-imidazol-2-yl)-3-(1H-pyrazol-4-yl)benzamide] | < 50 nM |
| CN(C(=O)CCCc1cn(-c2ccccc2)c(NC(=O)c2cccc(-c3cn[nH]c3)c2)n1)C1CC1 [Example 71, N-(4-(4-(cyclopropyl(methyl)amino)-4-oxobutyl)-1-phenyl-1H-imidazol-2-yl)-3-(1H-pyrazol-4-yl)benzamide] | < 50 nM |
| Cn1cc(-c2cccc(C(=O)Nc3nc(CCCC(=O)N4CCCCC4)cn3-c3ccccc3)c2)cn1 [Example 142, 3-(1-methyl-TH-pyrazol-4-yl)-N-(4-(4-oxo-4-(piperidin-1-yl)butyl)-1-phenyl-1H-imidazol-2-yl)benzamide] | < 50 nM |
| O=C(O)CCc1cn(-c2ccccc2)c(NC(=O)c2cccc(-c3cn[nH]c3)c2)n1 [Example 7, 3-(2-(3-(1H-pyrazol-4-yl)benzamido)-1-phenyl-1H-imidazol-4-yl)propanoic acid] | < 50 nM |
| C[C@@H]1CCCN1C(=O)CCc1cn(-c2ccccc2)c(NC(=O)c2cccc(-c3cn[nH]c3)c2)n1 [Example 23, (R)—N-(4-(3-(2-methylpyrrolidin-1-yl)-3-oxopropyl)-1-phenyl-1H-imidazol-2-yl)-3-(1H-pyrazol-4-yl)benzamide] | < 50 nM |
| COC[C@H]1CCCN1NC(=O)CCCCc1cn(-c2ccccc2)c(NC(=O)c2cccc(-c3cn[nH]c3)c2)n1 [Example 85, (R)—N-(4-(5-((2-(methoxymethyl)pyrrolidin-1-yl)amino)-5-oxopentyl)-1-phenyl-1H-imidazol-2-yl)-3-(1H-pyrazol-4-yl)benzamide] | < 50 nM |
| CCN1CCN(C(=O)CCCc2cn(-c3ccccc3)c(NC(=O)c3cccc(-c4cnn(C)c4)c3)n2)CC1 [Example 144, N-(4-(4-(4-ethylpiperazin-1-yl)-4-oxobutyl)-1-phenyl-1H-imidazol-2-yl)-3-(1-methyl-1H-pyrazol-4-yl)benzamide] | < 50 nM |
| Cn1cc(-c2cccc(C(=O)Nc3nc(CCCC(=O)NC[C@@H](F)C(C)(C)O)cn3-c3ccccc3)c2)cn1 [Example 185, (R)—N-(4-(4-((2-fluoro-3-hydroxy-3-methylbutyl)amino)-4-oxobutyl)-1-phenyl-1H-imidazol-2-yl)-3-(1-methyl-1H-pyrazol-4-yl)benzamide] | 50 to 100 nM |
| O=C(Nc1nc(CCC(=O)N2CCOCC2)cn1-c1ccccc1)c1cccc(-c2cn[nH]c2)c1 [Example 11, N-(4-(3-morpholino-3-oxopropyl)-1-phenyl-1H-imidazol-2-yl)-3-(1H-pyrazol-4-yl)benzamide] | < 50 nM |
| O=C(CCc1cn(-c2ccccc2)c(NC(=O)c2cccc(-c3cn[nH]c3)c2)n1)NN1CCCC1 [Example 27, N-(4-(3-oxo-3-(pyrrolidin-1-ylamino)propyl)-1-phenyl-1H-imidazol-2-yl)-3-(1H-pyrazol-4-yl)benzamide] | > 100 nM |
| Cn1cc(-c2cccc(C(=O)Nc3nc(CCCC(=O)NCCN4CCCCC4)cn3-c3ccccc3)c2)cn1 [Example 159, 3-(1-methyl-1H-pyrazol-4-yl)-N-(4-(4-oxo-4-((2-(piperidin-1-yl)ethyl)amino)butyl)-1-phenyl-1H-imidazol-2-yl)benzamide] | < 50 nM |
